Here are results for 1 compound from US20230149324A1, “COMPOSITIONS COMPRISING THYMOL AND AMINO ACIDS FOR USE IN THE TREATMENT OF INFLAMMATORY OR FUNCTIONAL INTESTINAL DISORDERS” (VETAGRO INTERNATIONAL S.R.L., priority 2020, published 2023).

Molecules are shown by their SMILES.

For series [1] the following is noted: piglets, 14-day experiment, up to 510 mg thymol/kg feed. On the procedure: […] piglets (Duroc—Large White) weaned at 28 days of age and with a body weight (BW) of 7.71±1.00 kg were divided into 40 pens (4 piglets per pen, castrated males and females were placed in separate pens) and randomly assigned to one of the following experimental groups (n=32): control group fed with the basal diet (T1), a group fed with the basal diet supplemented with 25.5 mg of thymol/kg feed (T2), a group fed with the basal diet supplemented with 51 mg of thymol/kg feed (T3), a group fed with the basal diet supplemented with 153 mg of thymol/kg feed (T4) and a group fed with the basal diet supplemented with 510 mg of thymol/kg feed (T5). Thymol was provided in a form embedded (microencapsulated) in a lipid matrix (Vetagro SpA, Reggio Emilia, Italy). Concentrations of thymol were selected to meet or exceed the upper limit of inclusion in food and feed established by the European Agency for the Evaluation of Medicinal Products and for the feed. […] The health condition of the animals was monitored during the study. […] Growth parameters, such as FI, ADFI, ADG and F:G (FI—feed intake; ADFI—Average daily feed intake; ADG—Average daily gain; F:G—Feed to gain ratio), were measured in the animals housed in each pen on day 14 (d14) of the experiment.

Series [2] deals with CB1 mRNA. The series can be described thus: Gene expression of cannabinoid receptor CB1 in duodenal and ileal mucosa of weaned piglets fed thymol (real-time PCR). The series is classed as in vivo, pig. As to conditions: d14, compared to the control group; for CB1 mRNA level, ileum: P=0.0054. On the procedure:
(§1) At the end of the study, 8 animals from each treatment group were sacrificed, samples were collected, and analysed. Duodenal and ileal mucosal scrapings were collected. The duodenum and ileum were longitudinally cut to expose the mucosa, washed with a phosphate-buffered saline solution to remove mucus and digesta, then scraped gently, packed, immediately frozen in liquid nitrogen and stored at -80° C. until the analyses of gene and protein expression. Gene expression was analysed using the method reported by […] et al. [The Journal of Nutrition. 2011; 141:2139-45]. Duodenal and ileal scraping samples obtained on d14 of the study were disrupted by grinding them in liquid nitrogen with mortar and pestle, and then homogenised using a TissueLyser (Qiagen, Hilden, Germany). Total RNA was isolated using a NucleoSpin® RNA Kit (Macherey-Nagel, Duren, Germany) according to the manufacturer's instructions. Genomic DNA contamination was removed by treating the samples with the deoxyribonuclease supplied in the extraction kit ([…], RNase-free; Macherey-Nagel). The RNA yield and quality were determined spectrophotometrically by measuring the absorbance at 260 and 280 nm (A260 and A280 nm, respectively) (Microvolume Mode with SmartPath® Technology, Denovix). […] The average threshold cycle (CT) was determined for each gene of interest, and the geometric average was calculated for HK by assuming that CT is the number of cycles required to reach a fixed arbitrary threshold. Delta CT was calculated, then a modification of the 2^-ΔΔCT method [Livak K J, et al., Methods 2001; 25:402-8] was used to analyse the relative expression (fold changes), which was calculated relative to the control group. […] Animals were blocked in a completely randomised design and data were analysed using GraphPad Prism® software (GraphPad Software, Inc., La Jolla, Calif., USA). Data were analysed using one-way ANOVA followed by Tukey's post hoc test to detect differences among treatments. […]
Background: Quantitative PCR measures a nucleic acid by following its amplification.

Series [3] deals with TRPV1 mRNA. The series can be described thus: Gene expression of gut chemosensing marker TRPV1 in duodenal and ileal mucosa of weaned piglets fed thymol (real-time PCR). The series is classed as in vivo, pig. As to conditions: for TRPV1 mRNA level, ileum: d14, compared to the control group, P=0.0183. On the procedure:
as §1

Series [4] has as its system CB2 mRNA. The series can be described thus: Gene expression of cannabinoid receptor CB2 in duodenal and ileal mucosa of weaned piglets fed thymol (real-time PCR). The series is classed as in vivo, pig. As to conditions: d14, compared to the control group; for CB2 mRNA level, duodenum: P=0.004; for CB2 mRNA level, ileum: P=0.0162. As for the experimental part: as §1, with “Denovix). One microgram of RNA was reverse transcribed using the iScript cDNA Synthesis Kit (Bio-Rad Laboratories Inc., Hercules, Calif., USA) according to the manufacturer's instructions. Real-time PCR was performed using an iCycler Thermal Cycler system and SybrGreen Supermix (Bio-Rad Laboratories Inc.). The thermocycling protocol provided for an initial denaturation step for 1 minute and 30 seconds at 95° C., followed by 40 denaturation cycles at 95° C. for 15 seconds, and 30 seconds of annealing and extension at 60° C. After amplification, a melt curve analysis was performed for all samples, with slow heating from 55° C. to 95° C. at a rate of 0.5° C./s to validate the absence of non-specific products.” for “Denovix).”

In series [5] the test system is OR1G1 (Olfactory receptor 1G1) mRNA. The series can be described thus: Gene expression of gut chemosensing marker OR1G1 in duodenal and ileal mucosa of weaned piglets fed thymol (real-time PCR). The series is classed as in vivo, pig. The settings on record: d14, compared to the control group. As for the experimental part: (§2) At the end of the study, 8 animals from each treatment group were sacrificed, samples were collected, and analysed. Duodenal and ileal mucosal scrapings were collected. The duodenum and ileum were longitudinally cut to expose the mucosa, washed with a phosphate-buffered saline solution to remove mucus and digesta, then scraped gently, packed, immediately frozen in liquid nitrogen and stored at -80° C. until the analyses of gene and protein expression. Gene expression was analysed using the method reported by […] et al. [The Journal of Nutrition. 2011; 141:2139-45]. […] The RNA yield and quality were determined spectrophotometrically by measuring the absorbance at 260 and 280 nm (A260 and A280 nm, respectively) (Microvolume Mode with SmartPath® Technology, Denovix). […] The average threshold cycle (CT) was determined for each gene of interest, and the geometric average was calculated for HK by assuming that CT is the number of cycles required to reach a fixed arbitrary threshold. Delta CT was calculated, then a modification of the 2^-ΔΔCT method [Livak K J, et al., Methods 2001; 25:402-8] was used to analyse the relative expression (fold changes), which was calculated relative to the control group. […] Animals were blocked in a completely randomised design and data were analysed using GraphPad Prism® software (GraphPad Software, Inc., La Jolla, Calif., USA). […]

The subject of series [6] is FAAH mRNA. The series can be described thus: Gene expression of ECS enzyme FAAH in duodenal and ileal mucosa of weaned piglets fed thymol (real-time PCR). The series is classed as in vivo, pig. On the procedure: as §2
Where [7] appears, read: group T4, 153 mg of thymol/kg feed.
Where [8] appears, read: group T5, 510 mg of thymol/kg feed.

For `Cc1ccc(C(C)C)c(O)c1` [thymol], the mortality result in series [1] was “no mortality was recorded”. Also, the “CB1 mRNA level, ileum” value in series [2] (setting [7]) and in series [2] (setting [8]) was “significantly increased” each time. The “CB1 mRNA level, duodenum” value in series [2] (group T5, 510 mg of thymol/kg feed, P=0.0209) is reported as “significantly increased”. Besides, the “TRPV1 mRNA level, ileum” value in series [3] (group T4, 153 mg thymol/kg feed) is recorded as “increased”; in series [3] (group T5, 510 mg thymol/kg feed) it was “increased”. Besides, in series [3] (group T5, 510 mg thymol/kg of feed, d14, P=0.0382), the “TRPV1 mRNA level, duodenum” value is on record as “increased”. In addition, the “CB2 mRNA level, duodenum” value in series [4] (setting [7]) and in series [4] (setting [8]) was “Significantly increased” each time. Moreover, the “CB2 mRNA level, ileum” value in series [4] (setting [7]) and in series [4] (setting [8]) was “Significantly increased” each time. The “OR1G1 mRNA level, ileum” value in series [5] (group T4, 153 mg thymol/kg feed, P=0.0235) was “expressed at higher levels”. Also, in series [5] (group T5, 510 mg thymol/kg feed, P=0.0210), the “OR1G1 mRNA level, duodenum” value is on record as “expressed at higher levels”. In addition, in series [6] (group T4, 153 mg of thymol/kg feed, d14, compared to the control group, P=0.0028), the “FAAH mRNA level, ileum” value is reported as “significantly increased”. The “FAAH mRNA level, duodenum” value in series [6] (thymol groups T2-T5 (25.5-510 mg/kg feed), d14) is given as “Differences in FAAH mRNA levels were not observed”.
